Laboratory results reported in patent US6149937A, “Liposome encapsulated amphiphilic drug compositions” (priority 1996, dated 2000).
Like-named read-outs stand apart in the source and are kept apart here. *1 amine or outer side, *2 acyl side, *3 side chain or, on linkers, in order; H or OH if unused. Where a SMILES comes first, the peptide text is derived from it. Bridges are numbered along the chain shown (N, C = ends). Roman numbers before positions name the chains, in order. [ ]: non-standard residue; d: D form. Actinocin(9to1) = Cc1c2oc3c(C)ccc(C(=O)[*:1])c3nc-2c(C(=O)[*:2])c(N)c1=O; NMeV = CN[CH](C(=O)O)C(C)C; Sar = CNCC(=O)O

Experiments:
[1] = cited from earlier work; for animal or human results of liposome association: lipid-layer encapsulated
[2] = Release of bupivacaine from the liposomal BP^0 formulation at pH 7.4; format: physicochemical
[3] = Crystals in liposomal BP^0 formulations; format: physicochemical
Procedure: These films were hydrated by 1 ml buffer at pH 8.1 and suspended as MLVs with bupivacaine crystals inside and outside the phospholipid […] by freeze-etching electron microscopy. […] This film was suspended as MLVs in 1 ml buffer pH 8.1. […] No crystals were detected from the ratio 17 and above (Table VII).

[4] = Entrapment of BP^+ into MLVs; format: physicochemical; conditions: for encapsulation efficiency: EPC/BP^+ 6, pH 6.5
Procedure: The bupivacaine concentration was measured by UV spectrophotometry at 271.6 nm. After extraction of BP^+ in chloroform with EPC, 27.5 mg of cholesterol were added thereto. After evaporation of the organic solvent under an inert atmosphere and drying of the lipid film, hydration was carried out at pH 6.5. The encapsulation efficiency was measured by UV spectrophotometry at 271.6 nm.

[5] = Rate of release of BP^+ from MLVs at pH 7.4; format: physicochemical
Procedure: A further preparation of liposomal BP^+ pH 6.5 prepared as described above was inserted into a dialysis bag (5 ml containing 353.25 mg EPC and 25 mg BP^+). The bag was immersed in 145 ml PBS pH 7.4 with a renewal rate of 23 ml/hour. Samples of the pH 7.4 medium were harvested at different times and the concentration of bupivacaine was measured by UV spectrophotometry.

[6] = not told
[7] = cited from earlier work
[8] = cited from earlier work; remark: listed apart in the source
[9] = not given; remark: listed apart in the source
[10] = pH 7.8
[11] = cited from earlier work; remark: listed apart in the source
[12] = cited from earlier work; remark: listed apart in the source
[13] = MP^0 release from MLVs (dialysis bag, PBS pH 7.4); format: physicochemical
[14] = Entrapment of MP^+ into MLVs; format: physicochemical; conditions: EPC/morphine 98, pH 4.5, n=5, referred to 1 mg initially dissolved
[15] = pH 7.4, 37° C.
[16] = 10 ml PBS pH 7.4
[17] = test system: bacteria; conditions: References 30-33; listed as oxine; cited from earlier work
[18] = EPC/oxine 4.8, pH 7.4
[19] = not given; remark: listed apart in the source
[20] = Entrapment of tin(II) dioxinate into MLVs; format: physicochemical
Procedure: Egg yolk phosphatidylcholine (14.4 mg, 18.3 μmol) and cholesterol (5.6 mg, 13.7 μmol) were dissolved in chloroform with 0.1, 0.2, 0.3, 0.4, 0.5 mg (1.2 μmol) and 0.6 mg tin(II) dioxinate. After evaporation of the solvent, hydration occurred with NaCl 150 mM 1 ml. The MLVs thus prepared were washed 5 times in order to discard free tin(II) dioxinate.
The number of tin(II) dioxinate molecules inserted into liposomes increased with the number of SnOx2 molecules present in the preliposomal lipid film. Liposomal saturation occurred for a number of moles averaging 1.23 μmoles SnOx2 inserted into 18.3 μmoles EPC (EPC/SnOx2 mole ratio of 15) with an encapsulation efficiency of 30% for MLVs.

[21] = Cell membrane permeation predicted by TAMMO combined with liposomal entrapment and release assays; conditions: concluded from TAMMO and liposome assays
[22] = Release of tin(II) dioxinate from MLVs at pH 7.4; format: physicochemical
[23] = formulation with crystals, pH 7.4

CCCCN1CCCCC1C(=O)Nc1c(C)cccc1C (centres unmarked) [BP^0]
sensory block ([1]; BP^+ in liposomal aqueous phase, Reference 13): prolongation of the sensory block | motor block ([1]; BP^+ in liposomal aqueous phase, Reference 29): outlasted the analgesic action | Release ([2]; Table III, PL/X 5): 24 to 48 h | release compared with crystal-containing formulation ([2]; crystal-free): slower | peak concentration ([2]; crystal-free, 230.56 mg EPC, 5 mg BP^0, pH 7.4): 5 to 8 µg/mL | time to complete clearance ([2]; crystal-free, pH 7.4): 3 days | time to peak ([2]; crystal-free, pH 7.4): 6 h | maximal concentration ([2]; formulation with crystals, 14.4 mg EPC, 5 mg BP^0, pH 7.4, 37° C.): 7 to 8 µg/mL | time to maximal concentration [2, 23]: 6 to 12 h | time to release of the whole amount [2, 23]: 2 days | Crystals ([3]; EPC/BP ratio 17 and above): No crystals | Crystals ([3]; EPC/BP ratio up to 16): presence of bupivacaine crystals | Crystals ([3]; EPC/BP^0 ratio 13 or above): without crystals | Crystals ([3]; EPC/BP^0 ratio 17): 0 | Crystals ([3]; EPC/BP^0 ratio 20): 0 | Crystals ([3]; EPC/BP^0 ratio 22): 0 | Crystals ([3]; EPC/BP^0 ratio 25): 0 | AE (encapsulation efficiency) ([4]; Table III, PL/X 5): 75% | encapsulation efficiency ([4]; after 2 hours): 60±1% | encapsulation efficiency ([4]; after 24 hours): 74±0.5% | BP^+ inserted into MLVs ([4]; from 5 mg BP^+, 70.65 mg EPC): 3.7 mg | duration of release ([5]; 1 ml formulation, pH 7.4): 24 to 48 h | time to maximal concentration ([5]; 1 ml formulation, pH 7.4): 6 to 12 h | duration of release ([5]; 5 ml formulation in dialysis bag, pH 7.4): 72 h | rapid transfer of unencapsulated bupivacaine ([5]; 6 hour, 5 ml in dialysis bag, pH 7.4): 25% | Release ([5]; Table III, PL/X 5): 72 h | ability to cross cell membranes [6]: able to cross cell membranes

CCCCN1CCCCC1C(=O)Nc1c(C)cccc1C (centres unmarked) [Bupivacaine, bupivacaine]
animal or human results of liposome association [1]: promising animal or effective human results | Log Poct ([7]; Table II): 1.4 | Log Poct ([7]; Table III): 3.6 | log of the partition coefficient between water and octanol ([7]; clonidine: octanol/buffer pH 7.4): 1.8 | plasma level at which systemic toxicity becomes apparent ([8]; human, in vivo): ~1600 ng/mL | therapeutic concentration ([8]; human, in vivo): 1 µg/mL | duration of analgesic action ([8]; peripheral nerve blocks): up to 12 hours

Clc1cccc(Cl)c1NC1=NCCN1 [CL^0]
AE (encapsulation efficiency) (Table III, PL/X 5): 14.5% | Release ([9]; Table III, PL/X 5): 0.5 h | proportion of species [10]: 28.5% | proportion of species ([10]; listed as CL^+): 71.5%

CCN(CC)CCOC(=O)c1ccc(N)cc1Cl [Chlorprocaine, chlorprocaine]
Log Poct ([7]; Table II): -0.8

Clc1cccc(Cl)c1N=C1NCCN1 [Clonidine, clonidine]
solubility in organic solvents [11]: soluble in octanol when uncharged | solubility in aqueous medium ([11]; water or acidic solution): highly soluble in acidic solution as a cation | encapsulation efficiency (14.4 mg EPC, 0.5 mg CL^0, pH 7.8, n=6): 14.5%±0.4 | leakage from vesicles after 1 hour ([9]; pH 7.4, after 1 hour): Almost all | pK / pKa [12]: 8.2 | Log Poct ([7]; octanol/water): 1.59 | duration of hypotensive action ([8]; human, in vivo): 1 days

CCCN(CC)C(CC)C(=O)Nc1c(C)cccc1C (centres unmarked) [Etidocaine, etidocaine]
Log Poct ([7]; octanol/water): 2.1

CN1CC[C@]23c4c5ccc(O)c4O[C@H]2[C@@H](O)C=C[C@H]3[C@H]1C5 [MP^0]
crystals in the dialysis bag at the end of release ([13]; EPC/MP^0 10): No crystals | Release ([13]; EPC/MP^0 10, 26 and 52): sustained and prolonged | duration of release ([13]; EPC/MP^0 10, pH 7.4): 48 h | duration of release ([13]; EPC/MP^0 26, pH 7.4): 30 h | duration of release ([13]; EPC/MP^0 52, pH 7.4): 24 h | Release ([13]; Table III, PL/X 10): 48 h | Release ([13]; Table III, PL/X 26): 30 h | Release ([13]; Table III, PL/X 52): 24 h | encapsulation [14]: 31.2±2.1% | duration of slow decrease of concentration [15]: 3 days | time to maximal concentration [15]: 1 h

CCOC(=O)C1(c2ccccc2)CCN(C)CC1 [Meperidine, meperidine]
Log Poct ([7]; octanol/water): 1.3

Cc1cccc(C)c1NC(=O)C1CCCCN1C (centres unmarked) [Mepivacaine, mepivacaine]
pKs ([12]; Table II): 7.76 | Log Poct ([7]; octanol/water): -0.1

CN1CC[C@]23c4c5ccc(O)c4O[C@H]2[C@@H](O)C=C[C@H]3[C@H]1C5 [Morphine, morphine]
duration of action ([8]; intramuscular, epidural or intrathecal): ≥ 12 h

Oc1cccc2cccnc12 [Oxine, 8-hydroxyquinoline]
time of release of a bulk of the liposomal compound [16]: 20 min | partition coefficient octanol/water ([7]; not logarithmic): 67 | bactericidal activity (words) [17]: acts as a bactericidal agent by crossing the bacterial cell membrane | oxine entrapped in MLVs [18]: 50% | oxine entrapped in MLVs ([18]; from 0.7 mg): 0.35 mg

CCCNC(C)C(=O)Nc1ccccc1C (centres unmarked) [Prilocaine, prilocaine]
Log Poct ([7]; Table II): -0.05

CCN(CC)CCOC(=O)c1ccc(N)cc1 [Procaine, procaine]
Log Poct ([7]; octanol/water): -1.7

CCCCNc1ccc(C(=O)OCCN(C)C)cc1 [Tetracaine, tetracaine]
Log Poct ([7]; octanol/water): 0.6

Cc1c2oc3c(C)ccc(C(=O)NC4C(=O)NC(C(C)C)C(=O)N5CCCC5C(=O)N(C)CC(=O)N(C)C(C(C)C)C(=O)OC4C)c3nc-2c(C(=O)NC2C(=O)NC(C(C)C)C(=O)N3CCCC3C(=O)N(C)CC(=O)N(C)C(C(C)C)C(=O)OC2C)c(N)c1=O (centres unmarked) [actinomycin D] (I: TVP[Sar][NMeV] / II: TVP[Sar][NMeV]; ester I:1-I:C, II:1-II:C; linker I:N-II:N via Actinocin(9to1); configuration not given here)
animal or human results of liposome association [1]: promising animal or effective human results

tin(II) dioxinate
limit of solubility in chloroform ([19]; chloroform): 400 µM | limit of solubility in chloroform ([19]; chloroform with epc): 4100 µM | SnOx2 inserted at liposomal saturation ([20]; 18.3 μmoles EPC): ~1.23 µmol | EPC/SnOx2 mole ratio at saturation ([20]; MLVs): 15 | encapsulation efficiency ([20]; MLVs, EPC/SnOx2 15): 30% | AE (encapsulation efficiency) ([20]; Table III, PL/X 6): 30% | ability to cross cell membranes [21]: unable to cross the cell membrane | Release ([22]; Table III, PL/X 6): > 72 h | Release ([22]; pH 7.4, for at least one week): no release
